As usually defined, the EC50 is the midpoint of the concentration-response curve.

This note sets out measurements from patent US11701364B2, “Agonists of stimulator of interferon genes sting” (The Scripps Research Institute, priority 2018, dated 2023).

Read-outs that look alike come from different tables or passages of the source.

The subject of assay [1] is interferon-stimulated gene signature. Put plainly: Interferon-stimulated gene signature expression (qPCR). To be noted: relevant cell types. The class given is cell-based, human. The procedure:
Wild-type and STING KO THP-1 cells were stimulated with poly(dA:dT), a known activator of both RIG-I and cGAS-dependent signaling cascades, and downstream target gene expression was assessed 48 h later by qPCR (A). Wild-type and STING KO THP-1 cells were stimulated with 2′3′-cGAMP or Cmpd 164 at the indicated doses and activation of type I interferon signaling was assessed by gene expression analysis of IFNB1 (B) and interferon stimulated genes, IFIT3 (C) and CXCL10 (D).
We have established a robust platform for identifying non-nucleotide small molecule STING agonists. This has been established using a primary assay involving a human THP-1 cell line carrying an IRF-inducible reporter with 5 copies of the IFN signaling response element. Counter screens, involving alternative reporter constructs, rodent cell-based assays, as well as cGAS and STING knock-out cell lines, are used to eliminate luciferase artifacts and ensure human-rodent cross species reactivity, as well as pathway selectivity. […]
THP-1 cells were resuspended in low-serum growth media at a density of 5×10^5 cells/ml and treated with test article or vehicle (DMSO). […] Gene expression was assessed using Taqman primers and probes listed in Table 4 with the Taqman Universal Mix II (cat. no. 4440038, ThermoFisher) following manufacturer's instructions. […]
On the technique in general: Quantitative PCR measures a nucleic acid by following its amplification.

The next assay deals with cGAS knockout cells. Put plainly: Activity in wild-type and cGAS knockout cells (counter screen). The class given is cell-based. From the text:
We have established a robust platform for identifying non-nucleotide small molecule STING agonists. This has been established using a primary assay involving a human THP-1 cell line carrying an IRF-inducible reporter with 5 copies of the IFN signaling response element. Counter screens, involving alternative reporter constructs, rodent cell-based assays, as well as cGAS and STING knock-out cell lines, are used to eliminate luciferase artifacts and ensure human-rodent cross species reactivity, as well as pathway selectivity. Biochemical assays, involving cGAS enzymatic activity and STING protein binding assays, are used to identify the specific target of identified hits. […] Further evidence is provided by STING protein thermal shift data. A preliminary medicinal chemistry effort, involving the design, synthesis, and testing of ˜100 analogs within the series, has identified key features of the molecule that are required for activity and has led to the identification of derivatives with ˜10-fold improvements in cell-based potency (by for example modulating the substitution pattern on the aniline ring) and ˜50-fold improvement in plasma stability (by modulating the size of the substituent of the ester).
(Counterscreens check selectivity or assay interference.)

A further assay deals with STING knockout cells. Description: ISRE-Luciferase reporter activity in STING knockout THP-1 cells (counter screen). It is filed as cell-based, human. How it is done:
Wild-type and STING KO THP-1 ISRE-Luciferase reporter cells were treated with increasing doses of 2′3′-cGAMP and reporter activity (luminescence) was assessed 48 h after treatment (A). Lack of STING protein expression was confirmed in STING KO THP-1 cells by western blot with gamma-tubulin used as a protein loading control (B). Wild-type and STING KO THP-1 reporter cells were treated with increasing doses of Compound 164 (Cmpd 164) and reporter activity and cell viability were assessed 24 h after treatment (C-D).
We have established a robust platform for identifying non-nucleotide small molecule STING agonists. This has been established using a primary assay involving a human THP-1 cell line carrying an IRF-inducible reporter with 5 copies of the IFN signaling response element. […]
THP-1 Lucia ISG cells were resuspended in low-serum growth media (2% FBS) at a density of 5×10^5 cells/ml and treated with test article or vehicle (DMSO). […] To evaluate expression of the luciferase reporter, 30 μl of Quanti-luc (Invivogen) detection reagent was added to each well and luminescence was read using an Envision plate reader (Perkin Elmer) set with an integration time of 0.1 seconds.
On the technique in general: Reporter assays use an easily measured gene product as a stand-in for the process of interest.

For assay [2], the target named is T1, STING (Stimulator of Interferon Genes) (Homo sapiens, UniProt Q86WV6, G230A/H232R/R293Q/R71H).
T1 construct: host or cells: THP-1-Lucia ISG cells (human monocytic line)
Description: ISG-LUC activation assay (ISRE-Luciferase assay in THP-1 Lucia ISG reporter cells). The class given is cell-based. From the text: This has been established using a primary assay involving a human THP-1 cell line carrying an IRF-inducible reporter with 5 copies of the IFN signaling response element. Counter screens, involving alternative reporter constructs, rodent cell-based assays, as well as cGAS and STING knock-out cell lines, are used to eliminate luciferase artifacts and ensure human-rodent cross species reactivity, as well as pathway selectivity. Biochemical assays, involving cGAS enzymatic activity and STING protein binding assays, are used to identify the specific target of identified hits.
THP-1 Lucia ISG cells were resuspended in low-serum growth media (2% FBS) at a density of 5×10^5 cells/ml and treated with test article or vehicle (DMSO). 50 μL of cells were seeded into each well of a 384-well white greiner plates and incubated for 24 hours. To evaluate expression of the luciferase reporter, 30 μl of Quanti-luc (Invivogen) detection reagent was added to each well and luminescence was read using an Envision plate reader (Perkin Elmer) set with an integration time of 0.1 seconds.

Another assay concerns human PBMCs. Put plainly: Type I IFN protein expression in human PBMCs. As to conditions: compared with 2′-3′ cGAMP. It is filed as cell-based.
Where [3] appears, read: THP-1 Lucia ISG cells, 24 hours, luciferase reporter, read-out: ISG-LUC activation assay (EC50).

T1 sequence (Q86WV6 whole entry R71H/G230A/H232R/R293Q): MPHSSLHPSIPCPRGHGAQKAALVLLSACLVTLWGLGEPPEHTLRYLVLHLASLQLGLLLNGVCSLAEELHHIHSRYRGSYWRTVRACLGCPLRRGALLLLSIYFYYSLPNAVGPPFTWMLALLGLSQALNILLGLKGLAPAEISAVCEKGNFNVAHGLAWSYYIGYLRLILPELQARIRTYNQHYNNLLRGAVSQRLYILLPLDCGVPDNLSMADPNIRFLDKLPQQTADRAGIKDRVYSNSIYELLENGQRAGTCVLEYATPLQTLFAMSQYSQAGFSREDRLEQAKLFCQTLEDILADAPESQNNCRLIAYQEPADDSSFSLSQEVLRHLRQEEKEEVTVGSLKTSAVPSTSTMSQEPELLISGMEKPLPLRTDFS

As for `O=C(Nc1ccc(Br)cc1C(O)(C(F)(F)F)C(F)(F)F)c1ccc(-n2ccnc2)nn1` [Compound 164], in assay [1], the “interferon-stimulated gene signature expression” value was “induces interferon-stimulated gene signature expression”. Also, the “activity in wild-type and cGAS knockout cells” value in the assay on cGAS knockout cells is on record as “observed activity”. The “activity in STING knockout cells” value in the assay with STING knockout cells is given as “lack of activity”. The EC50 in assay [2] (setting [3]) was greater than 20000 nM; in assay [2] (primary assay, human THP-1 IRF-inducible reporter, read-out: EC50), roughly 1000 nM. In addition, in the assay on human PBMCs, the “type I IFN protein expression, efficacy” value is reported as “comparable to that observed for 2′-3′ cGAMP”. As to `O=C(Nc1ccccc1C(O)(C(F)(F)F)C(F)(F)F)c1ccc(-n2ccnc2)nn1` [Compound 1], the EC50 in assay [2] (setting [3]) was determined as 593 nM. In the case of `O=C(Nc1ccccc1C(=O)OC1CCC1)c1ccc(-n2ccnc2)nn1` [Compound 4], in assay [2] (setting [3]), the EC50 is 2070 nM. The same measure, in the same setting: for `COC(=O)c1ccc(C#N)cc1NC(=O)c1ccc(-n2ccnc2)nn1` [Compound 12] the value was 159 nM; for `Cc1ccc(NC(=O)c2ccc(-n3ccnc3)nn2)c(C(=O)O)c1` [Compound 89], greater than 20000 nM. Same read-out and setting: for `O=C(Nc1cc(F)c(F)cc1C(=O)NCCO)c1ccc(-n2ccnc2)nn1` [Compound 122] the value was 7960 nM.

As to `COC(=O)c1c(F)ccc(Cl)c1NC(=O)c1ccc(-n2ccnc2)nn1` [Compound 99], in assay [2] (setting [3]), the 50% effective concentration (EC50) stood at 11900 nM. Still for that read-out and setting: in the case of `COC(=O)c1cc(F)ccc1NC(=O)c1ccc(-n2ccnc2)nn1` [Compound 13] it was 249 nM. In the case of `Cc1c(F)ccc2nc(-c3ccc(-n4ccnc4)nn3)oc(=O)c12` [Compound 133], the EC50 in assay [2] (setting [3]) was determined as 4170 nM.

As to `COC(=O)c1cc(O)c(F)cc1NC(=O)c1ccc(-n2ccnc2)nn1` [Compound 142], in assay [2] (setting [3]), the EC50 is greater than 50000 nM. The same measure, in the same setting: in the case of `COC(=O)c1cc(O)ccc1NC(=O)c1ccc(-n2ccnc2)nn1` [Compound 109] it was 8950 nM. As to `Cc1ccc(NC(=O)c2ccc(-n3ccnc3)nn2)c(C(O)(C(F)(F)F)C(F)(F)F)c1` [Compound 115], the 50% effective concentration (EC50) in assay [2] (setting [3]) amounted to 7360 nM. The same measure, in the same setting: in the case of `CCc1ccc(NC(=O)c2ccc(-n3ccnc3)nn2)c(C(=O)OC)c1` [Compound 20] it was 418 nM; in that of `O=C(Nc1ccc(F)c(F)c1C(=O)O)c1ccc(-n2ccnc2)nn1` [Compound 173], greater than 20000 nM; in that of `COC(=O)c1cc(C)c(Cl)cc1NC(=O)c1ccc(-n2ccnc2)nn1` [Compound 61], 124 nM.

For the compound `Cc1noc(-c2ccccc2NC(=O)c2ccc(-n3ccnc3)nn2)n1` [Compound 7], the EC50 in assay [2] (setting [3]) is greater than 50000 nM. Still for that read-out and setting: in the case of `N#Cc1ccc(C(=O)O)c(NC(=O)c2ccc(-n3ccnc3)nn2)c1` [Compound 165] it was 4090 nM; in that of `COC(=O)c1ncccc1NC(=O)c1ccc(-n2ccnc2)nn1` [Compound 5], 1240 nM. On the same count and under the same terms, in the case of `COC(=O)c1cc(C#N)c(F)cc1NC(=O)c1ccc(-n2ccnc2)nn1` [Compound 55] it was 221 nM. Still for that read-out and setting: for `O=C(Nc1cc(Cl)nnc1C(=O)O)c1ccc(-n2ccnc2)nn1` [Compound 157] the value was greater than 50000 nM; for `COC(=O)c1ccccc1NC(=O)c1ccc(-n2cnc(C#N)c2)nn1` [Compound 92], roughly 5260 nM. Turning to `CC(C)OC(=O)c1cc(F)ccc1NC(=O)c1ccc(-n2ccnc2)nn1` [Compound 25], in assay [2] (setting [3]), the EC50 came out at 805 nM. For `COC(=O)c1nc(Br)c(F)cc1NC(=O)c1ccc(-n2ccnc2)nn1` [Compound 43], the EC50 in assay [2] (setting [3]) was found to be 142 nM. Still for that read-out and setting: for `CCCc1ccc(NC(=O)c2ccc(-n3ccnc3)nn2)c(C(=O)O)c1` [Compound 171] the value was greater than 20000 nM; for `COC(=O)c1cc(C)ccc1NC(=O)c1ccc(-n2ccnc2)nn1` [Compound 104], 426 nM; for `COC(=O)c1cc(C)c(F)cc1NC(=O)c1ccc(-n2ccnc2)nn1` [Compound 50], 145 nM. On to `Cc1cc2nc(-c3ccc(-n4ccnc4)nn3)oc(=O)c2cc1C` [Compound 9], for which the EC50 in assay [2] (setting [3]) was 163 nM. On the same count and under the same terms, in the case of `COC(=O)c1cc(F)c(C2CC2)cc1NC(=O)c1ccc(-n2ccnc2)nn1` [Compound 56] it was 302 nM; in that of `CCOC(=O)C1=C(NC(=O)c2ccc(-n3ccnc3)nn2)CCCCC1` [Compound 120], greater than 50000 nM; in that of `COC(=O)c1cc2c(cc1NC(=O)c1ccc(-n3ccnc3)nn1)OCO2` [Compound 98], 2680 nM. On the same count and under the same terms, for `COC(=O)c1cc(F)c(F)cc1NC(=O)c1ccc(-n2ccnc2)nn1` [Compound 107] the value was 415 nM; for `O=C(Nc1cc(F)c(Br)nc1C(=O)O)c1ccc(-n2ccnc2)nn1` [Compound 177], greater than 20000 nM; for `COc1cc(NC(=O)c2ccc(-n3ccnc3)nn2)c(C(=O)O)cc1F` [Compound 54], 248 nM. As to `CCOC(=O)c1c(F)cc(F)c(F)c1NC(=O)c1ccc(-n2ccnc2)nn1` [Compound 148], the half-maximal effective concentration (EC50) in assay [2] (setting [3]) was 3680 nM. On the same count and under the same terms, in the case of `COC(=O)c1nc(C2CC2)c(F)cc1NC(=O)c1ccc(-n2ccnc2)nn1` [Compound 145] it was 1580 nM. Still for that read-out and setting: for `CN(O)C(=O)c1cc(F)c(F)cc1NC(=O)c1ccc(-n2ccnc2)nn1` [Compound 147] the value was 5250 nM.

Take `COc1ccc(NC(=O)c2ccc(-n3ccnc3)nn2)c(C(=O)O)c1` [Compound 151]: the EC50 in assay [2] (setting [3]) was 7760 nM. Consider `COC(=O)c1nn(C)cc1NC(=O)c1ccc(-n2ccnc2)nn1` [Compound 119], for which the concentration giving a half-maximal response (EC50) in assay [2] (setting [3]) was determined as 5890 nM. Regarding `COC(=O)c1cc(OC(F)(F)F)ccc1NC(=O)c1ccc(-n2ccnc2)nn1` [Compound 76], the EC50 in assay [2] (setting [3]) stood at 573 nM. Still for that read-out and setting: in the case of `O=C(Nc1cc(F)c(F)cc1C(=O)NC1CCC(O)(C(F)(F)F)CC1)c1ccc(-n2ccnc2)nn1` (centres unmarked) [Compound 87] it was greater than 20000 nM. On the same count and under the same terms, for `O=c1oc(-c2ccc(-n3ccnc3)nn2)nc2cc3c(cc12)OCCO3` [Compound 139] the value was 2520 nM. Still for that read-out and setting: for `O=c1oc(-c2ccc(-n3ccnc3)nn2)nc2cc(F)c(OC(F)(F)F)cc12` [Compound 42] the value was 373 nM; for `COC(=O)c1cc(F)cc(F)c1NC(=O)c1ccc(-n2ccnc2)nn1` [Compound 19], 817 nM.

Consider `CCc1ccc(NC(=O)c2ccc(-n3ccnc3)nn2)c(C(=O)O)c1` [Compound 79], for which the EC50 in assay [2] (setting [3]) is greater than 20000 nM. Still for that read-out and setting: for `COC(=O)c1ccccc1NC(=O)c1ccc(-n2ccnc2)nn1` [Compound 162] the value was 956 nM.
